Assay results as given in patent US11214803B2, “Modulators of YAP1 expression” (Ionis Pharmaceuticals, Inc., priority 2019, dated 2022).
Strand notation (5' to 3'): a small letter for the sugar, then the base; units joined by * are phosphorothioate-linked, units joined directly phosphodiester-linked; [ ] holds rarer units or linkages, { } end groups; capitals alone tell only the bases. k = constrained ethyl (cEt); [5mC] = 5-methylcytosine; d = 2'-deoxy (DNA)

Tests used:
Yap1 mRNA [1] = assay: Antisense inhibition of human Yap1 in A-431 cells by cEt gapmers, single dose (Example 2, RTS4814); format: cell-based; conditions: 3-10-3 cEt gapmers targeting SEQ ID NO.: 1, and 2
Summary of the method: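 Single-dose knockdown screen of 3-10-3 cEt phosphorothioate gapmers at 2,000 nM added by free uptake to A-431 cells. After roughly 48 h, RNA was isolated and Yap1 transcript measured by RT-qPCR, with results given as % UTC.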

Yap1 mRNA [2] = assay: Dose-dependent inhibition of human Yap1 in A-431 cells (Example 8, 10,000 cells per well, RTS4814); format: cell-based; conditions: free uptake, approximately 48 hours, RTS4814; for Yap1 mRNA, % UTC: A-431 cells, 10,000 cells per well; for IC50: A-431 cells, linear regression on log/linear plot
Summary of the method: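 A-431 cells (10,000/well) dosed with modified oligonucleotides by free uptake; Yap1 mRNA measured ~48 h later with primer-probe set RTS4814, normalized to total RNA (RIBOGREEN). Values are % of untreated control; IC50 from linear regression on log/linear plot.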

[3] = Yap1 mRNA as percent of untreated control, A-431 cells, Table 31
[4] = Yap1 mRNA as percent of untreated control, A-431 cells, Table 30
[5] = Table 33, Yap1 mRNA, percent of untreated control

1074609 (DNA k[5mC]*kT*kA*dG*dT*dT*dA*d[5mC]*dA*dT*d[5mC]*dA*dT*k[5mC]*kT*k[5mC]) [compound 1074609]
YAP1 (% UTC) (Yap1 mRNA [1]; [3]): 8 % UTC
Yap1 mRNA, % UTC (Yap1 mRNA [2]; 31.3 nM): 65 % UTC
Yap1 mRNA, % UTC (Yap1 mRNA [2]; 125.0 nM): 29 % UTC
Yap1 mRNA, % UTC (Yap1 mRNA [2]; 500.0 nM): 15 % UTC
Yap1 mRNA, % UTC (Yap1 mRNA [2]; 2000.00 nM): 11 % UTC
IC50 (Yap1 mRNA [2]): 100 nM

1074610 (DNA kT*k[5mC]*kT*dA*dG*dT*dT*dA*d[5mC]*dA*dT*d[5mC]*dA*kT*k[5mC]*kT) [compound 1074610]
YAP1 (% UTC) (Yap1 mRNA [1]; Table 32, Yap1 mRNA, percent of untreated control): 5 % UTC
Yap1 mRNA, % UTC (Yap1 mRNA [2]; 31.3 nM): 57 % UTC
Yap1 mRNA, % UTC (Yap1 mRNA [2]; 125.0 nM): 20 % UTC
Yap1 mRNA, % UTC (Yap1 mRNA [2]; 500.0 nM): 10 % UTC
Yap1 mRNA, % UTC (Yap1 mRNA [2]; 2000.00 nM): 7 % UTC
IC50 (Yap1 mRNA [2]): < 20 nM

1074672 (antisense k[5mC]*k[5mC]*kA*dA*dG*dT*dA*dG*d[5mC]*dT*dT*dT*dG*kA*kT*k[5mC]) [compound 1074672]
YAP1 (% UTC) (Yap1 mRNA [1]; [4]): 6 % UTC
Yap1 mRNA, % UTC (Yap1 mRNA [2]; 31.3 nM): 34 % UTC
Yap1 mRNA, % UTC (Yap1 mRNA [2]; 125.0 nM): 18 % UTC
Yap1 mRNA, % UTC (Yap1 mRNA [2]; 500.0 nM): 10 % UTC
Yap1 mRNA, % UTC (Yap1 mRNA [2]; 2000.00 nM): 7 % UTC
IC50 (Yap1 mRNA [2]): < 20 nM

1074675 (antisense kA*kA*kA*dT*dT*dA*dT*dA*dG*dG*d[5mC]*dA*d[5mC]*kT*k[5mC]*k[5mC]) [compound 1074675]
YAP1 (% UTC) (Yap1 mRNA [1]; [5]): 6 % UTC
Yap1 mRNA, % UTC (Yap1 mRNA [2]; 31.3 nM): 47 % UTC
Yap1 mRNA, % UTC (Yap1 mRNA [2]; 125.0 nM): 18 % UTC
Yap1 mRNA, % UTC (Yap1 mRNA [2]; 500.0 nM): 6 % UTC
Yap1 mRNA, % UTC (Yap1 mRNA [2]; 2000.00 nM): 3 % UTC
IC50 (Yap1 mRNA [2]): < 20 nM

1074736 (kT*k[5mC]*kA*dG*dT*dA*d[5mC]*dA*dG*dA*dG*dG*dG*k[5mC]*kA*kT; antisense) [compound 1074736]
YAP1 (% UTC) (Yap1 mRNA [1]; [4]): 4 % UTC
Yap1 mRNA, % UTC (Yap1 mRNA [2]; 31.3 nM): 34 % UTC
Yap1 mRNA, % UTC (Yap1 mRNA [2]; 125.0 nM): 12 % UTC
Yap1 mRNA, % UTC (Yap1 mRNA [2]; 500.0 nM): 7 % UTC
Yap1 mRNA, % UTC (Yap1 mRNA [2]; 2000.00 nM): 7 % UTC
IC50 (Yap1 mRNA [2]): < 20 nM

1074737 (kT*kT*k[5mC]*dA*dG*dG*dT*d[5mC]*dA*dG*dT*dA*d[5mC]*kA*kG*kA; antisense) [compound 1074737]
YAP1 (% UTC) (Yap1 mRNA [1]; [3]): 7 % UTC
Yap1 mRNA, % UTC (Yap1 mRNA [2]; 31.3 nM): 50 % UTC
Yap1 mRNA, % UTC (Yap1 mRNA [2]; 125.0 nM): 21 % UTC
Yap1 mRNA, % UTC (Yap1 mRNA [2]; 500.0 nM): 8 % UTC
Yap1 mRNA, % UTC (Yap1 mRNA [2]; 2000.00 nM): 6 % UTC
IC50 (Yap1 mRNA [2]): < 20 nM

1074800 (k[5mC]*kA*kA*dA*dT*dA*dG*dT*dG*d[5mC]*dT*dT*dT*kG*kG*kA; antisense) [compound 1074800]
YAP1 (% UTC) (Yap1 mRNA [1]; [4]): 6 % UTC
Yap1 mRNA, % UTC (Yap1 mRNA [2]; 31.3 nM): 48 % UTC
Yap1 mRNA, % UTC (Yap1 mRNA [2]; 125.0 nM): 21 % UTC
Yap1 mRNA, % UTC (Yap1 mRNA [2]; 500.0 nM): 10 % UTC
Yap1 mRNA, % UTC (Yap1 mRNA [2]; 2000.00 nM): 7 % UTC
IC50 (Yap1 mRNA [2]): < 20 nM

1074801 (kA*k[5mC]*kA*dA*dA*dT*dA*dG*dT*dG*d[5mC]*dT*dT*kT*kG*kG; antisense) [compound 1074801]
YAP1 (% UTC) (Yap1 mRNA [1]; [3]): 8 % UTC
Yap1 mRNA, % UTC (Yap1 mRNA [2]; 31.3 nM): 76 % UTC
Yap1 mRNA, % UTC (Yap1 mRNA [2]; 125.0 nM): 41 % UTC
Yap1 mRNA, % UTC (Yap1 mRNA [2]; 500.0 nM): 19 % UTC
Yap1 mRNA, % UTC (Yap1 mRNA [2]; 2000.00 nM): 12 % UTC
IC50 (Yap1 mRNA [2]): 100 nM

1075088 (kA*kT*kT*dT*dA*dT*dA*dG*dT*d[5mC]*dA*dG*dG*kT*kT*k[5mC]; antisense) [compound 1075088]
YAP1 (% UTC) (Yap1 mRNA [1]; [4]): 2 % UTC
Yap1 mRNA, % UTC (Yap1 mRNA [2]; 31.3 nM): 37 % UTC
Yap1 mRNA, % UTC (Yap1 mRNA [2]; 125.0 nM): 9 % UTC
Yap1 mRNA, % UTC (Yap1 mRNA [2]; 500.0 nM): 4 % UTC
Yap1 mRNA, % UTC (Yap1 mRNA [2]; 2000.00 nM): 2 % UTC
IC50 (Yap1 mRNA [2]): < 20 nM

1075089 (k[5mC]*kA*kT*dT*dT*dA*dT*dA*dG*dT*d[5mC]*dA*dG*kG*kT*kT; antisense) [compound 1075089]
YAP1 (% UTC) (Yap1 mRNA [1]; [3]): 2 % UTC
Yap1 mRNA, % UTC (Yap1 mRNA [2]; 31.3 nM): 45 % UTC
Yap1 mRNA, % UTC (Yap1 mRNA [2]; 125.0 nM): 9 % UTC
Yap1 mRNA, % UTC (Yap1 mRNA [2]; 500.0 nM): 3 % UTC
Yap1 mRNA, % UTC (Yap1 mRNA [2]; 2000.00 nM): 3 % UTC
IC50 (Yap1 mRNA [2]): < 20 nM

1075155 (kT*k[5mC]*kA*dT*dT*dA*dT*dA*dA*dT*dG*dG*dG*kA*kG*kG; antisense) [compound 1075155]
YAP1 (% UTC) (Yap1 mRNA [1]; [5]): 5 % UTC
Yap1 mRNA, % UTC (Yap1 mRNA [2]; 31.3 nM): 51 % UTC
Yap1 mRNA, % UTC (Yap1 mRNA [2]; 125.0 nM): 15 % UTC
Yap1 mRNA, % UTC (Yap1 mRNA [2]; 500.0 nM): 6 % UTC
Yap1 mRNA, % UTC (Yap1 mRNA [2]; 2000.00 nM): 4 % UTC
IC50 (Yap1 mRNA [2]): < 20 nM
